In PubChem BioAssay (NCI):
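Test compounds were applied to cells in 96-well plates for 48 hours at 5 doses. TGI is the concentration that stops growth completely.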

Columns and labels:
Test in all cases: NCI-60 cell line screen, 48 h
COLO 205 colon = test system: COLO 205 colon
T-47D breast = test system: T-47D breast
SN12C renal = test system: SN12C renal
SF-539 CNS = test system: SF-539 CNS
KM12 colon = test system: KM12 colon
OVCAR-3 ovarian = test system: OVCAR-3 ovarian
MCF7 breast = test system: MCF7 breast
SK-MEL-5 melanoma = test system: SK-MEL-5 melanoma
EKVX NSCLC = test system: EKVX NSCLC
RXF 393 renal = test system: RXF 393 renal
CCRF-CEM leukemia = test system: CCRF-CEM leukemia
SF-295 CNS = test system: SF-295 CNS
K-562 leukemia = test system: K-562 leukemia
HOP-62 NSCLC = test system: HOP-62 NSCLC
A498 renal = test system: A498 renal
HCT-15 colon = test system: HCT-15 colon
OVCAR-8 ovarian = test system: OVCAR-8 ovarian
OVCAR-5 ovarian = test system: OVCAR-5 ovarian
SNB-75 CNS = test system: SNB-75 CNS
HCT-116 colon = test system: HCT-116 colon
HS 578T breast = test system: HS 578T breast
MALME-3M melanoma = test system: MALME-3M melanoma
MOLT-4 leukemia = test system: MOLT-4 leukemia
SNB-19 CNS = test system: SNB-19 CNS
SW-620 colon = test system: SW-620 colon
PC-3 prostate = test system: PC-3 prostate
MDA-MB-231 breast = test system: MDA-MB-231 breast
NCI-H23 lung = test system: NCI-H23 lung
HCC-2998 colon = test system: HCC-2998 colon
A549 NSCLC = test system: A549 NSCLC
MDA-N = test system: MDA-N
ACHN renal = test system: ACHN renal
UACC-257 melanoma = test system: UACC-257 melanoma
NCI-H522 lung = test system: NCI-H522 lung
U251 CNS = test system: U251 CNS
SF-268 CNS = test system: SF-268 CNS
UACC-62 melanoma = test system: UACC-62 melanoma
786-0 renal = test system: 786-0 renal
HOP-92 NSCLC = test system: HOP-92 NSCLC
NCI/ADR-RES ovarian = test system: NCI/ADR-RES ovarian
MDA-MB-435 = test system: MDA-MB-435
DU-145 prostate = test system: DU-145 prostate
OVCAR-4 ovarian = test system: OVCAR-4 ovarian
TK-10 renal = test system: TK-10 renal
HT29 colon = test system: HT29 colon
NCI-H460 lung = test system: NCI-H460 lung
SK-MEL-28 melanoma = test system: SK-MEL-28 melanoma
M14 melanoma = test system: M14 melanoma
BT-549 breast = test system: BT-549 breast
IGROV1 ovarian = test system: IGROV1 ovarian
UO-31 renal = test system: UO-31 renal
CAKI-1 renal = test system: CAKI-1 renal
NCI-H226 lung = test system: NCI-H226 lung
SK-OV-3 ovarian = test system: SK-OV-3 ovarian
SR leukemia = test system: SR leukemia
RPMI-8226 leukemia = test system: RPMI-8226 leukemia
LOX IMVI melanoma = test system: LOX IMVI melanoma
HL-60(TB) leukemia = test system: HL-60(TB) leukemia

## COc1ccc(C(=O)/C=C/c2ccc(OCC#N)cc2)cc1
COLO 205 colon
  TGI: 40.5 µM
T-47D breast
  TGI: 46 µM
SN12C renal
  TGI: 39.2 µM
SF-539 CNS
  TGI: 45.4 µM
KM12 colon
  TGI: 32.6 µM
OVCAR-3 ovarian
  TGI: > 100 µM
MCF7 breast
  TGI: 36.1 µM
SK-MEL-5 melanoma
  TGI: 28.4 µM
EKVX NSCLC
  TGI: > 100 µM
RXF 393 renal
  TGI: 30.7 µM
CCRF-CEM leukemia
  TGI: 81 µM
SF-295 CNS
  TGI: > 100 µM
K-562 leukemia
  TGI: 96.6 µM
HOP-62 NSCLC
  TGI: > 100 µM
A498 renal
  TGI: 96.3 µM
HCT-15 colon
  TGI: 54.7 µM
OVCAR-8 ovarian
  TGI: > 100 µM
OVCAR-5 ovarian
  TGI: > 100 µM
SNB-75 CNS
  TGI: > 100 µM
HCT-116 colon
  TGI: 24.6 µM
HS 578T breast
  TGI: > 100 µM
MALME-3M melanoma
  TGI: 43.7 µM
MOLT-4 leukemia
  TGI: 77.1 µM
SNB-19 CNS
  TGI: > 100 µM
SW-620 colon
  TGI: 33.6 µM
PC-3 prostate
  TGI: > 100 µM
MDA-MB-231 breast
  TGI: 72.5 µM
NCI-H23 lung
  TGI: 49.6 µM
HCC-2998 colon
  TGI: 31.8 µM
A549 NSCLC
  TGI: > 100 µM
MDA-N
  TGI: > 10 µM
ACHN renal
  TGI: > 100 µM
UACC-257 melanoma
  TGI: > 100 µM
NCI-H522 lung
  TGI: 35.6 µM
U251 CNS
  TGI: 32.5 µM
SF-268 CNS
  TGI: > 100 µM
UACC-62 melanoma
  TGI: > 10 µM
786-0 renal
  TGI: > 100 µM
HOP-92 NSCLC
  TGI: 67.4 µM
NCI/ADR-RES ovarian
  TGI: 50 µM
MDA-MB-435
  TGI: 59.3 µM
DU-145 prostate
  TGI: 81.7 µM
OVCAR-4 ovarian
  TGI: > 100 µM
TK-10 renal
  TGI: > 100 µM
HT29 colon
  TGI: > 100 µM
NCI-H460 lung
  TGI: 81.1 µM
SK-MEL-28 melanoma
  TGI: 32.9 µM
M14 melanoma
  TGI: 42 µM
BT-549 breast
  TGI: 31.6 µM
IGROV1 ovarian
  TGI: > 10 µM
UO-31 renal
  TGI: 30.6 µM
CAKI-1 renal
  TGI: 42 µM
NCI-H226 lung
  TGI: 88.8 µM
SK-OV-3 ovarian
  TGI: > 100 µM
SR leukemia
  TGI: 49.5 µM

## COc1ccc(NC(=O)C(=O)/C=C(\O)c2ccccc2)cc1
COLO 205 colon
  TGI: > 10 µM
T-47D breast
  TGI: > 10 µM
SN12C renal
  TGI: > 10 µM
KM12 colon
  TGI: > 10 µM
RPMI-8226 leukemia
  TGI: > 10 µM
MCF7 breast
  TGI: > 10 µM
SK-MEL-5 melanoma
  TGI: > 10 µM
EKVX NSCLC
  TGI: > 10 µM
RXF 393 renal
  TGI: > 10 µM
CCRF-CEM leukemia
  TGI: 8.76 µM
SF-295 CNS
  TGI: > 10 µM
K-562 leukemia
  TGI: > 10 µM
HOP-62 NSCLC
  TGI: > 10 µM
HCT-15 colon
  TGI: > 10 µM
OVCAR-8 ovarian
  TGI: > 10 µM
SNB-75 CNS
  TGI: > 10 µM
MALME-3M melanoma
  TGI: > 10 µM
MOLT-4 leukemia
  TGI: 4.18 µM
SW-620 colon
  TGI: > 10 µM
PC-3 prostate
  TGI: > 10 µM
MDA-MB-231 breast
  TGI: > 10 µM
NCI-H23 lung
  TGI: > 10 µM
HCC-2998 colon
  TGI: > 10 µM
A549 NSCLC
  TGI: > 10 µM
MDA-N
  TGI: > 10 µM
UACC-257 melanoma
  TGI: > 10 µM
LOX IMVI melanoma
  TGI: 5.27 µM
SF-268 CNS
  TGI: > 10 µM
UACC-62 melanoma
  TGI: > 10 µM
786-0 renal
  TGI: > 10 µM
HOP-92 NSCLC
  TGI: > 10 µM
MDA-MB-435
  TGI: > 10 µM
DU-145 prostate
  TGI: > 10 µM
OVCAR-4 ovarian
  TGI: > 10 µM
HL-60(TB) leukemia
  TGI: > 10 µM
TK-10 renal
  TGI: > 10 µM
HT29 colon
  TGI: > 10 µM
SK-MEL-28 melanoma
  TGI: > 10 µM
M14 melanoma
  TGI: > 10 µM
IGROV1 ovarian
  TGI: > 10 µM
CAKI-1 renal
  TGI: > 10 µM
SK-OV-3 ovarian
  TGI: > 10 µM
SR leukemia
  TGI: 3.41 µM
